Data from the supplement of paper PMC13380429.

Tests used:
HepG2 [1] = assay: cell viability relative to DMSO; higher = less toxic; details: 72 h
Caco-2 [2] = assay: as above; details: 72 h
Vero E6 [3] = assay: as above; details: 72 h
U2OS [4] = assay: as above; details: 72 h
Calu-3 [5] = assay: as above; details: 72 h
A549-ACE2 [6] = assay: drug-induced phospholipidosis relative to tamoxifen; higher = more phospholipidosis
[7] = system: A549-ACE2 infected with SARS-CoV-2; assay: SARS-CoV-2 infection rate relative to DMSO; higher = more infection; details: 24 h
HepG2 [8] = assay: relative viability EC50 (midpoint between 100% and the lowest measured viability); higher = less toxic; details: 72 h
Caco-2 [9] = assay: as above; details: 72 h
Vero E6 [10] = assay: as above; details: 72 h
U2OS [11] = assay: as above; details: 72 h
Calu-3 [12] = assay: as above; details: 72 h
[13] = system: A549-ACE2 infected with SARS-CoV-2; assay: cell count relative to DMSO; higher = less toxic; details: 24 h
HepG2 [14] = assay: drug sensitivity score (DSS) for viability; higher = more toxic; extreme values may be limits of the assay; details: 72 h
Caco-2 [15] = assay: as above; details: 72 h
Vero E6 [16] = assay: as above; details: 72 h
U2OS [17] = assay: as above; details: 72 h
Calu-3 [18] = assay: as above; details: 72 h
[19] = system: A549-ACE2 infected with SARS-CoV-2; assay: morphology score (similarity to uninfected cells); higher = more like uninfected cells; details: 24 h
A549-ACE2 [20] = assay: phospholipidosis EC50; higher = less potent phospholipidosis inducer

`C=CC(=O)N1CCN(C(=O)CNc2cc(I)c(Cl)cc2O)CC1` [K-Ras(G12C)-inhibitor-12] gave a cell viability (HepG2 [1]; 1 nM) of 95.2%, a cell viability (HepG2 [1]; 10 nM) of 98.1% and a cell viability (HepG2 [1]; 100 nM) of 88.2%. For the same compound, the cell viability (HepG2 [1]; 1000 nM) was 72.8%, the cell viability (HepG2 [1]; 10000 nM) was 42.8% and the cell viability (Caco-2 [2]; 1 nM) was 102%. The cell viability (Caco-2 [2]; 10 nM) was 96.3%, the cell viability (Caco-2 [2]; 100 nM) was 106% and the cell viability (Caco-2 [2]; 1000 nM) was 88.3%. It also gave a cell viability (Caco-2 [2]; 10000 nM) of 76.6%, a cell viability (Vero E6 [3]; 1 nM) of 101% and a cell viability (Vero E6 [3]; 10 nM) of 107%. The cell viability (Vero E6 [3]; 100 nM) was 90.2%, the cell viability (Vero E6 [3]; 1000 nM) was 54.1% and the cell viability (Vero E6 [3]; 10000 nM) was 40.1%. It also gave a cell viability (U2OS [4]; 1 nM) of 108%, a cell viability (U2OS [4]; 10 nM) of 96.9% and a cell viability (U2OS [4]; 100 nM) of 104%. The cell viability (U2OS [4]; 1000 nM) was 96.6%, the cell viability (U2OS [4]; 10000 nM) was 93.5% and the cell viability (Calu-3 [5]; 1 nM) was 112%. For the same compound, the cell viability (Calu-3 [5]; 10 nM) was 103%, the cell viability (Calu-3 [5]; 100 nM) was 104% and the cell viability (Calu-3 [5]; 1000 nM) was 75.5%. For the same compound, the cell viability (Calu-3 [5]; 10000 nM) was 79.5%, the drug-induced phospholipidosis (A549-ACE2 [6]; 0.3 µM, 24 h) was 8.49% and the drug-induced phospholipidosis (A549-ACE2 [6]; 0.3 µM, 48 h) was 5.08%. For the same compound, the drug-induced phospholipidosis (A549-ACE2 [6]; 0.3 µM, 72 h) was 5.88%, the drug-induced phospholipidosis (A549-ACE2 [6]; 0.833333 µM, 24 h) was 7.52% and the drug-induced phospholipidosis (A549-ACE2 [6]; 0.833333 µM, 48 h) was 2.66%. For the same compound, the drug-induced phospholipidosis (A549-ACE2 [6]; 0.833333 µM, 72 h) was 1.74%, the drug-induced phospholipidosis (A549-ACE2 [6]; 3.33333 µM, 24 h) was 10% and the drug-induced phospholipidosis (A549-ACE2 [6]; 3.33333 µM, 48 h) was 7.02%. It also gave a drug-induced phospholipidosis (A549-ACE2 [6]; 3.33333 µM, 72 h) of 5.37%, a drug-induced phospholipidosis (A549-ACE2 [6]; 6.66667 µM, 24 h) of 12% and a drug-induced phospholipidosis (A549-ACE2 [6]; 6.66667 µM, 48 h) of 10.2%. The drug-induced phospholipidosis (A549-ACE2 [6]; 6.66667 µM, 72 h) was 8.06%, the drug-induced phospholipidosis (A549-ACE2 [6]; 10 µM, 24 h) was 13.7% and the drug-induced phospholipidosis (A549-ACE2 [6]; 10 µM, 48 h) was 11.5%. The drug-induced phospholipidosis (A549-ACE2 [6]; 10 µM, 72 h) was 13.5%, the drug-induced phospholipidosis (A549-ACE2 [6]; 30 µM, 24 h) was 24% and the drug-induced phospholipidosis (A549-ACE2 [6]; 30 µM, 48 h) was 19.6%. The drug-induced phospholipidosis (A549-ACE2 [6]; 30 µM, 72 h) was 16%, the SARS-CoV-2 infection rate ([7]; 0.3 µM) was 74% and the SARS-CoV-2 infection rate ([7]; 3 µM) was 86%. The SARS-CoV-2 infection rate ([7]; 10 µM) was 76%, the SARS-CoV-2 infection rate ([7]; 30 µM) was 77% and the “relative viability EC50” value (HepG2 [8]) was 0.805 µM. For the same compound, the “relative viability EC50” value (Caco-2 [9]) was greater than 10 µM, the “relative viability EC50” value (Vero E6 [10]) was 0.388 µM and the “relative viability EC50” value (U2OS [11]) was greater than 10 µM. The “relative viability EC50” value (Calu-3 [12]) was greater than 10 µM, the cell count ([13]; 0.3 µM) was 109% and the cell count ([13]; 3 µM) was 93%. The cell count ([13]; 10 µM) was 93%, the cell count ([13]; 30 µM) was 85% and the drug sensitivity score (HepG2 [14]) was 6.5. The drug sensitivity score (Caco-2 [15]) was 2.2, the drug sensitivity score (Vero E6 [16]) was 9.6 and the drug sensitivity score (U2OS [17]) was 0. For the same compound, the drug sensitivity score (Calu-3 [18]) was 3.5, the morphology score ([19]; 0.3 µM) was 0.34 and the morphology score ([19]; 3 µM) was 0.05. The morphology score ([19]; 10 µM) was 0.03 and the morphology score ([19]; 30 µM) was -0.03.
Compound `Cc1ccc(C(=O)Nc2cccc(C(F)(F)F)c2)cc1Nc1nc(-c2cccnc2)nc2c1cnn2C` [NVP-BHG712] has a cell viability (HepG2 [1]; 1 nM) of 117%, a cell viability (HepG2 [1]; 10 nM) of 104% and a cell viability (HepG2 [1]; 100 nM) of 96.5%. For the same compound, the cell viability (HepG2 [1]; 1000 nM) was 48.6%, the cell viability (HepG2 [1]; 10000 nM) was 74.1% and the cell viability (Caco-2 [2]; 1 nM) was 93.9%. It also gave a cell viability (Caco-2 [2]; 10 nM) of 93.5%, a cell viability (Caco-2 [2]; 100 nM) of 101% and a cell viability (Caco-2 [2]; 1000 nM) of 96.6%. It also gave a cell viability (Caco-2 [2]; 10000 nM) of 107%, a cell viability (Vero E6 [3]; 1 nM) of 96.5% and a cell viability (Vero E6 [3]; 10 nM) of 102%. It also gave a cell viability (Vero E6 [3]; 100 nM) of 98.1%, a cell viability (Vero E6 [3]; 1000 nM) of 109% and a cell viability (Vero E6 [3]; 10000 nM) of 108%. For the same compound, the cell viability (U2OS [4]; 1 nM) was 95.7%, the cell viability (U2OS [4]; 10 nM) was 94.3% and the cell viability (U2OS [4]; 100 nM) was 109%. The cell viability (U2OS [4]; 1000 nM) was 95.5%, the cell viability (U2OS [4]; 10000 nM) was 105% and the cell viability (Calu-3 [5]; 1 nM) was 100%. It also gave a cell viability (Calu-3 [5]; 10 nM) of 95.2%, a cell viability (Calu-3 [5]; 100 nM) of 96.3% and a cell viability (Calu-3 [5]; 1000 nM) of 108%. It also gave a cell viability (Calu-3 [5]; 10000 nM) of 102%, a drug-induced phospholipidosis (A549-ACE2 [6]; 0.3 µM, 24 h) of 3.95% and a drug-induced phospholipidosis (A549-ACE2 [6]; 0.3 µM, 48 h) of 7.5%. The drug-induced phospholipidosis (A549-ACE2 [6]; 0.3 µM, 72 h) was 7.15%, the drug-induced phospholipidosis (A549-ACE2 [6]; 0.833333 µM, 24 h) was 19.7% and the drug-induced phospholipidosis (A549-ACE2 [6]; 0.833333 µM, 48 h) was 21.5%. For the same compound, the drug-induced phospholipidosis (A549-ACE2 [6]; 0.833333 µM, 72 h) was 18.8%, the drug-induced phospholipidosis (A549-ACE2 [6]; 3.33333 µM, 24 h) was 113% and the drug-induced phospholipidosis (A549-ACE2 [6]; 3.33333 µM, 48 h) was 139%. It also gave a drug-induced phospholipidosis (A549-ACE2 [6]; 3.33333 µM, 72 h) of 137%, a drug-induced phospholipidosis (A549-ACE2 [6]; 6.66667 µM, 24 h) of 126% and a drug-induced phospholipidosis (A549-ACE2 [6]; 6.66667 µM, 48 h) of 176%. The drug-induced phospholipidosis (A549-ACE2 [6]; 6.66667 µM, 72 h) was 208%, the drug-induced phospholipidosis (A549-ACE2 [6]; 10 µM, 24 h) was 120% and the drug-induced phospholipidosis (A549-ACE2 [6]; 10 µM, 48 h) was 183%. For the same compound, the drug-induced phospholipidosis (A549-ACE2 [6]; 10 µM, 72 h) was 244%, the drug-induced phospholipidosis (A549-ACE2 [6]; 30 µM, 24 h) was 138% and the SARS-CoV-2 infection rate ([7]; 0.3 µM) was 99%. It also gave an SARS-CoV-2 infection rate ([7]; 3 µM) of 68%, an SARS-CoV-2 infection rate ([7]; 10 µM) of 41% and an SARS-CoV-2 infection rate ([7]; 30 µM) of 84%. For the same compound, the “relative viability EC50” value (HepG2 [8]) was 0.264 µM, the “relative viability EC50” value (Caco-2 [9]) was greater than 10 µM and the “relative viability EC50” value (Vero E6 [10]) was greater than 10 µM. The “relative viability EC50” value (U2OS [11]) was greater than 10 µM, the “relative viability EC50” value (Calu-3 [12]) was greater than 10 µM and the “phospholipidosis EC50” value (A549-ACE2 [20]; 24 h) was 1.65 µM. The “phospholipidosis EC50” value (A549-ACE2 [20]; 48 h) was 2.21 µM, the “phospholipidosis EC50” value (A549-ACE2 [20]; 72 h) was 3.75 µM and the cell count ([13]; 0.3 µM) was 98%. It also gave a cell count ([13]; 3 µM) of 111%, a cell count ([13]; 10 µM) of 69% and a cell count ([13]; 30 µM) of 93%. It also gave a drug sensitivity score (HepG2 [14]) of 9.9, a drug sensitivity score (Caco-2 [15]) of 0 and a drug sensitivity score (Vero E6 [16]) of 0. For the same compound, the drug sensitivity score (U2OS [17]) was 0, the drug sensitivity score (Calu-3 [18]) was 0 and the morphology score ([19]; 0.3 µM) was -0.1. It also gave a morphology score ([19]; 3 µM) of 0.35, a morphology score ([19]; 10 µM) of 0.14 and a morphology score ([19]; 30 µM) of 0.25.
